According to patent US7871797B2, “DNA encoding a bacterial protease for degrading gelatin and collagen” (Jellice Co., Ltd., priority 2003, dated 2011):
Read-outs that look alike come from different tables or passages of the source. Starred links: 1 amine or outer side, 2 acyl side, 3 side chain; linkers in the order of their positions; H or OH if unused. Non-standard residues stand in square brackets, D forms with d. No end group written: not given here. *: point of attachment. K(DNP) = O=C([C@H](CCCCNc1ccc([N+](=O)[O-])cc1[N+](=O)[O-])N[*:1])[*:2]; Dnp = O=[N+]([O-])c1ccc(*)c([N+](=O)[O-])c1; Benzoyl(2-NHMe) = CNc1ccccc1C(=O)*

Legend:
[1] = tested on: enzyme (protease) of the present invention; test: Cutting activity (specific protease activity) on fluorescence-labeled synthetic peptides; type: biochemical, Aureobacterium sp. MIM-CG-9535-I; conditions: for Present or Absent of Specific degradation activity: fluorescence-labeled peptides with varied peptide chain; for Protease cutting activity (degradation of synthetic substrate), Enzyme of the present invention: 100 microgram labeled peptide, 1 microgram protease, 10 min at 37° C. in the dark
Text: Fluorescence-labeled peptides having the amino acid sequences denoted by (1) to (3) below are synthesized by the usual methods. Specifically, a fluorescent substance is attached as label on one side of the cutting site of a peptide having one of the amino acid sequences listed below, and a light-extinguishing substance is attached on the other side. Only when the labeled peptide has been cleaved is florescence detected. No fluorescence is detected even when employed as substrate for an enzyme not having cutting activity on the amino acid sequences given below. The substances used to label the peptide are not specifically limited other than that they be fluorescent and light-extinguishing substances. For example, N-methylanthranic acid can be employed as the fluorescent substance, and a dinitrophenyl group can be employed as the light-extinguishing substance.
To determine specific protease activity in the present invention, a fluorescence-labeled synthetic peptide, obtained by labeling a peptide having one of the amino acid sequences denoted by (1) to (3) above with N-methylanthranic acid on one end and labeling the other end thereof with a dinitrophenyl group, is employed as substrate and incubated with a prescribed quantity of enzyme for a prescribed period in the dark. Subsequently, the product is separated by reverse-phase chromatography and the fluorescent intensity of the separated product is measured to determine cutting activity.
Nma/Dnp florescence-labeled peptides (excitation wavelength 340 nm, fluorescence wavelength 440 nm) having the amino acid sequences of (1) to (3) below labeled on one end with N-methylanthranic acid and on the other end with a dinitrophenyl group were synthesized with a peptide synthesizer by the usual method.
Employing as substrate one of the fluorescence-labeled synthetic peptides obtained, cutting activity was measured under the following conditions.
(§1) A 100 microgram quantity of fluorescence-labeled synthetic peptide was adjusted to 0.2 mg/mL with 10 mM Tris buffer solution, 1 microgram of the above protease of the present invention was added, and the mixture was incubated for 10 min at 37° C. in the dark. The enzyme reaction solution obtained was subjected to reverse-phase HPLC using TSKgel® ODS-80Ts (silica-based, reverse phase chromatography resin; Tosoh Corp.) from 0.1 percent TFA to 80 percent acetonitrile-0.1 percent TFA at a flow rate of 1 mL/min and a gradient of 40 min to separate the degraded peptides. Employing A215 and a fluorescence spectrometer for high-performance liquid chromatography made by Shimatsu Corp., fluorescent intensity was measured at an excitation wavelength of 340 nm and a fluorescence wavelength of 440 nm.
The structure of the peptide chain was varied in the amino acid sequence of (1) above, fluorescence-labeled synthetic peptides were synthesized in the same manner as above, and cutting activity was measured in the same manner as above to verify the amino acids required for the above specific degradation activity.

[2] = tested on: enzyme (protease) of the present invention; type: biochemical, Aureobacterium sp. MIM-CG-9535-I
Method: Reagents in the form of o-phenanthroline, EDTA, EGTA, L-cysteine, 2-mercaptoethanol, N-ethylmaleimide, antipain, leupepsin, E-64, phosphoramidon, trypsin inhibitor, chymostatin, TCPK, PMSF, and iodoacetamide were employed as inhibitors.
Each of the reagents was mixed with the synthetic substrate after which the enzyme was added. The degradation reaction was conducted for 30 min at 37° C. and the enzymatic activity was measured. Adopting the case where no inhibitor was added as 100 percent, the relative residual enzymatic activity was calculated.

[3] = tested on: protease described in Japanese Patent Application Publication No. 2000-102381; conditions: protease of JP 2000-102381; cited from earlier work
[4] = tested on: enzyme described in Japanese Patent Application Publication No. 2000-102381; test: Cutting activity on fluorescence-labeled synthetic peptides, comparison enzyme; type: biochemical, Aureobacterium; conditions: identical conditions: 10 min at 37° C. in the dark
Method: as §1
For comparison, the cutting activity of the enzyme described in the above-cited patent application publication (Japanese Patent Application Publication No. 2000-102381) was measured under identical conditions.

[5] = tested on: protease described in Japanese Patent Application Publication No. 2000-102381; conditions: protease of JP 2000-102381; cited from earlier work; remark: listed apart in the source
[6] = Temperature stability of the enzyme; type: physicochemical; conditions: then 30 min at 37° C. with substrate
Method: i) Temperature Stability • The enzyme was left standing for one hour at various temperatures of from 0 to 60° C. and subsequently reacted with a synthetic substrate for 30 min at 37° C. Enzyme activity was then measured.

[7] = inhibitor 0.05 mM, 30 min at 37° C., no inhibitor = 100 percent
[8] = inhibitor 20 mM, 30 min at 37° C., no inhibitor = 100 percent

## GPAG FAG: fluorescence-labeled synthetic peptide, single letter code (GPAGFAG; also: fluorescence label, site not given here)
[1]
  Present or Absent of Specific degradation activity: Absent

## AG FAGP: fluorescence-labeled synthetic peptide, single letter code (AGFAGP; also: fluorescence label, site not given here)
[1]
  Present or Absent of Specific degradation activity: Absent

## CC(C)C[C@H](NC(=O)[C@H]1O[C@@H]1C(=O)O)C(=O)NCCCCN=C(N)N [E-64]
[2]; [7]
  Residual activity (%): 95%

## Cc1ccc(S(=O)(=O)N[C@@H](Cc2ccccc2)C(=O)CCl)cc1 [TCPK]
[2]; inhibitor 0.1 mM, 30 min at 37° C., no inhibitor = 100 percent
  Residual activity (%): 95%

## O=C(O)CN(CCN(CC(=O)O)CC(=O)O)CC(=O)O [EDTA, ethylenediamine tetraacetic acid]
[2]
  Residual activity (%): 93%
[3]
  Enzyme inhibition: not

## OCCS [2-ME, 2-mercaptoethanol]
[2]; [8]
  Residual activity (%): 73%

## CC(C)C[C@H](NP(=O)(O)O[C@@H]1O[C@@H](C)[C@H](O)[C@@H](O)[C@H]1O)C(=O)N[C@@H](Cc1c[nH]c2ccccc12)C(=O)O [Phosphoramidon, phosphoramidon]
[2]; [7]
  Residual activity (%): 91%

## G FAGP: fluorescence-labeled synthetic peptide, single letter code (GFAGP; also: fluorescence label, site not given here)
[1]
  Present or Absent of Specific degradation activity: Absent

## N[C@@H](CS)C(=O)O [L-Cys, L-cysteine]
[2]; [8]
  Residual activity (%): 0%
[3]
  Enzyme inhibition: inhibited

## O=S(=O)(F)Cc1ccccc1 [PMSF, phenylmethanesulfonyl fluoride]
[2]; [8]
  Residual activity (%): 84%
[3]
  Enzyme inhibition: not

## CC(=O)N[C@@H](CC(C)C)C(=O)N[C@@H](CC(C)C)C(=O)N[C@H](C=O)CCCNC(=N)N [Leupepsin, leupepsin]
[2]; [7]
  Residual activity (%): 92%

## CC(C)C[C@H](NC(=O)[C@@H](NC(=O)N[C@@H](Cc1ccccc1)C(=O)O)[C@@H]1CCN=C(N)N1)C(=O)N[C@H](C=O)Cc1ccccc1 [Chymostatin, chymostatin]
[2]; [7]
  Residual activity (%): 85%

## Nma-Gly-Pro-Ala-Gly-Phe-Ala-Gly-Pro-Lys-(DNP)r-NH2 ({Benzoyl(2-NHMe)}-GPAGFAGP-{K(DNP)-dR-NH2}; SMILES CNc1ccccc1C(=O)NCC(=O)N1CCC[C@H]1C(=O)N[C@@H](C)C(=O)NCC(=O)N[C@@H](Cc1ccccc1)C(=O)N[C@@H](C)C(=O)NCC(=O)N1CCC[C@H]1C(=O)N[C@@H](CCCCNc1ccc([N+](=O)[O-])cc1[N+](=O)[O-])C(=O)N[C@H](CCCNC(=N)N)C(N)=O) [Gly-Pro-Ala-Gly-↓-Phe-Ala-Gly-Pro, fluorescence-labeled synthetic substrate]
[1]
  Protease cutting activity (degradation of synthetic substrate), Enzyme of the present invention: (◯) Degrades
  Present or Absent of Specific degradation activity: Present
[4]
  Protease cutting activity (degradation of synthetic substrate), Enzyme of patent application publication: (X) Does not degrade

## DNP-Gln-Gly-Ile-Ala-Gly-Gln-D-Arg (Dnp-QGIAGQ[dR]) [synthetic substrate]
[5]
  Degradation activity: no degradation activity

## c1cnc2c(c1)ccc1cccnc12 [o-Phenanthroline, o-phenanthroline]
[2]; inhibitor 2 mM, 30 min at 37° C., no inhibitor = 100 percent
  Residual activity (%): 0%
[3]
  Enzyme inhibition: inhibited

## Pro-Gln-Gly-Ile-Ala-Gly-Gln (PQGIAGQ; also: fluorescence label, site not given here) [Pro-Gln-Gly-↓-Ile-Ala-Gly-Gln, fluorescence-labeled synthetic substrate degraded by the enzyme of the earlier publication]
[1]
  Protease cutting activity (degradation of synthetic substrate), Enzyme of the present invention: (X) Does not degrade
[4]
  Protease cutting activity (degradation of synthetic substrate), Enzyme of patent application publication: (◯) Degrades

## Pro-Ala-Gly-Phe-Ala-Gly-Pro (PAGFAGP; also: fluorescent label, type and site not given here) [PAG FAGP, fluorescence-labeled synthetic peptide, single letter code]
[1]
  Present or Absent of Specific degradation activity: Present

## DNP-Pro-Gln-Gly-Ile-Ala-Gly-Gln-D-Arg (Dnp-PQGIAGQ[dR]) [synthetic collagenase substrate]
[5]
  Degradation activity: only slight degradation activity

## GPAG FA: fluorescence-labeled synthetic peptide, single letter code (GPAGFA; also: fluorescence label, site not given here)
[1]
  Present or Absent of Specific degradation activity: Absent

## NC(=O)CI [Iodoacetamide, iodoacetamide]
[2]; [8]
  Residual activity (%): 77%
[3]
  Enzyme inhibition: not

## Nma-Thr-Gln-Ser-Leu-Val-Thr-Pro-Lys-(DNP)r-NH2 [Gln-Thr-Gln-Ser-↓-Leu-Val-Thr-Pro]
[1]
  Protease cutting activity (degradation of synthetic substrate), Enzyme of the present invention: (◯) Degrades
[4]
  Protease cutting activity (degradation of synthetic substrate), Enzyme of patent application publication: (X) Does not degrade

## Nma-Gly-Pro-Gln-Gly-Phe-Gln-Gly-Pro-Lys-(DNP)r-NH2 ({Benzoyl(2-NHMe)}-GPQGFQGP-{K(DNP)-dR-NH2}; SMILES CNc1ccccc1C(=O)NCC(=O)N1CCC[C@H]1C(=O)N[C@@H](CCC(N)=O)C(=O)NCC(=O)N[C@@H](Cc1ccccc1)C(=O)N[C@@H](CCC(N)=O)C(=O)NCC(=O)N1CCC[C@H]1C(=O)N[C@@H](CCCCNc1ccc([N+](=O)[O-])cc1[N+](=O)[O-])C(=O)N[C@H](CCCNC(=N)N)C(N)=O) [Gly-Pro-Gln-Gly-↓-Phe-Gln-Gly-Pro, fluorescence-labeled synthetic substrate]
[1]
  Protease cutting activity (degradation of synthetic substrate), Enzyme of the present invention: (◯) Degrades
[4]
  Protease cutting activity (degradation of synthetic substrate), Enzyme of patent application publication: (X) Does not degrade

## O=C(O)CN(CCOCCOCCN(CC(=O)O)CC(=O)O)CC(=O)O [EGTA]
[2]; inhibitor 10 mM, 30 min at 37° C., no inhibitor = 100 percent
  Residual activity (%): 68%

## GPAG F: fluorescence-labeled synthetic peptide, single letter code (GPAGF; also: fluorescence label, site not given here)
[1]
  Present or Absent of Specific degradation activity: Absent

## casein
[5]
  Degradation activity: exhibits degradation activity

## CCN1C(=O)C=CC1=O [N-Ethylmaleimide, N-ethylmaleimide]
[2]; [8]
  Residual activity (%): 79%
[3]
  Enzyme inhibition: not

B1: protease of the present invention: protease of molecular weight 21,000±1,000 from Aureobacterium sp. MIM-CG-9535-I cutting specific Gly-Phe and Ser-Leu sites (protein, listed as Aureobacterium sp.)
chain: LIVNTVNSIDDKWSDAQASALTYCVSTAFGARHADVVSAMESGAALWEAASSKIDFIYDSSADANCTTRNNAVLFSVEPVQTTQYIARAFFPSTAPRLQNVLIDDSIWTPGSSWTPTNVLGHELGHVLGFRHEHTRPEAGTCFEDDNWRPLTPYDSSSIMHYPQCNGSSADLSMTSVDTDGVVALYGN
[6]; left standing one hour at 30° C.
  Temperature stability: residual activity: about half
[6]; left standing one hour at 40° C. and above
  Temperature stability: nearly deactivated
